Data on 28 molecules can be found in ChEMBL document CHEMBL6134838, “Discovery of c-Kit as a New Therapeutic Target in LPS-Induced Acute Lung Injury through Novel Phenylamide Derivative D9” (J Med Chem, 2025).

The nature of data set [1]: Cytotoxicity against mouse J774.A1 cells assessed as survival rate at 10 uM measured for 48 hrs by MTT assay relative to control. (In general: Formazan colour is commonly taken as a measure of viable cells.)
In a further data set the test system is J774.A1. The experiment in a line: cells. As to conditions: Mus musculus, J774.A1, 24 h.

Molecules are shown by their SMILES. A value given as a limit tells only on which side of the number the result lay.

Description for J774.A1: Antiinflammatory activity against mouse J774.A1 cells assessed as inhibition of LPS-stimulated IL-6 release measured for 24 hrs by ELISA method

For orientation: viability means a read-out of living cells in per cent, often relative to untreated cells. For `O=C(NCCc1cccs1)c1cc(Oc2ccc(NC(=O)c3cn(-c4ccc(Br)cc4F)c4ccccc4c3=O)cc2)ccn1`, the viability at 48 h, 10 µM in data set [1] was found to be 92.8%.
Turning to `COc1ccc(-n2cc(C(=O)Nc3ccc(Oc4ccnc(C(=O)NCCc5cccs5)c4)cc3)c(=O)c3ccccc32)cc1`, the viability at 48 h, 10 µM in data set [1] stood at 88.3%.
Same read-out and setting: to `COc1ccc(-n2cc(C(=O)Nc3ccc(Oc4ccnc(C(=O)NCCc5cccs5)c4)c(F)c3)c(=O)c3ccccc32)cc1` belongs 85.3%; to `O=C(NCCCN1CCOCC1)c1cc(Oc2ccc(NC(=O)c3cn(-c4ccc(F)c(Cl)c4)c4ccccc4c3=O)cc2)ccn1`, greater than 100%.
Same read-out and setting: to `O=C(NCCc1cccs1)c1cc(Oc2ccc(NC(=O)c3cn(-c4ccc(F)cc4)c4ccccc4c3=O)cc2F)ccn1` belongs greater than 100%; to `O=C(NCCc1cccs1)c1cc(Oc2ccc(NC(=O)c3cn(-c4ccc(Cl)cc4)c4ccccc4c3=O)cc2F)ccn1`, 7.46%.
For the molecule `O=C(NCCc1cccs1)c1cc(Oc2ccc(NC(=O)c3cn(-c4ccc(Br)cc4F)c4ccccc4c3=O)cc2F)ccn1`, the viability at 48 h, 10 µM in data set [1] was found to be 97.1%.
For the molecule `COc1ccc(-n2cc(C(=O)Nc3ccc(Oc4ccnc(C(=O)NCCCN5CCOCC5)c4)c(F)c3)c(=O)c3ccccc32)cc1`, the viability at 48 h, 10 µM in data set [1] stood at 22.9%.
Take `O=C(NCCCN1CCOCC1)c1cc(Oc2ccc(NC(=O)c3cn(-c4ccccc4)c4ccccc4c3=O)cc2)ccn1`: the viability at 48 h, 10 µM in data set [1] amounted to 82.7%.
Regarding `O=C(NCCCN1CCOCC1)c1cc(Oc2ccc(NC(=O)c3cn(-c4ccc(F)cc4)c4ccccc4c3=O)cc2)ccn1`, the viability at 48 h, 10 µM in data set [1] worked out at 87.1%.
Take `O=C(NCCCN1CCOCC1)c1cc(Oc2ccc(NC(=O)c3cn(-c4ccc(F)c(Cl)c4)c4ccccc4c3=O)cc2F)ccn1`: the viability at 48 h, 10 µM in data set [1] is greater than 100%.
On the same count and under the same terms, to `O=C(NCCCN1CCOCC1)c1cc(Oc2ccc(NC(=O)c3cn(-c4ccc(Cl)cc4)c4ccccc4c3=O)cc2F)ccn1` belongs 77.8%.
On the same count and under the same terms, to `O=C(NCCCN1CCOCC1)c1cc(Oc2ccc(NC(=O)c3cn(-c4ccc(Br)cc4F)c4ccccc4c3=O)cc2F)ccn1` belongs 90.7%; to `O=C(NCCCN1CCOCC1)c1cc(Oc2ccc(NC(=O)c3cn(-c4ccc(Br)cc4)c4ccccc4c3=O)cc2)ccn1`, greater than 100%; to `O=C(NCCCN1CCOCC1)c1cc(Oc2ccc(NC(=O)c3cn(-c4ccc(F)cc4)c4ccccc4c3=O)cc2F)ccn1`, 94.1%.
Turning to `O=C(NCCc1cccs1)c1cc(Oc2ccc(NC(=O)c3cn(-c4ccc(F)c(Cl)c4)c4ccccc4c3=O)cc2)ccn1`, in data set [1], the viability at 48 h, 10 µM was greater than 100%.
Still for that read-out and setting: with `O=C(NCCc1cccs1)c1cc(Oc2ccc(NC(=O)c3cn(-c4ccc(F)c(Cl)c4)c4ccccc4c3=O)cc2F)ccn1` the figure was 77.7%; with `O=C(NCCc1cccs1)c1cc(Oc2ccc(NC(=O)c3cn(-c4ccc(Br)cc4)c4ccccc4c3=O)cc2)ccn1`, 84.4%; with `O=C(NCCCN1CCOCC1)c1cc(Oc2ccc(NC(=O)c3cn(-c4ccccc4)c4ccccc4c3=O)cc2F)ccn1`, 83.2%.
By IC50 is commonly meant the concentration needed to halve the response being measured. Lower therefore signals higher potency. For `O=C(NCCCN1CCOCC1)c1cc(Oc2ccc(NC(=O)c3cn(-c4ccc(Br)cc4)c4ccccc4c3=O)cc2F)ccn1`, the viability at 48 h, 10 µM in data set [1] turned out to be 91.3%. In the data set with J774.A1, the IC50 amounted to 6.16 µM.
As to `O=C(NCCc1cccs1)c1cc(Oc2ccc(NC(=O)c3cn(-c4ccc(Br)cc4)c4ccccc4c3=O)cc2F)ccn1`, the viability at 48 h, 10 µM in data set [1] turned out to be 84.3%.
Still for that read-out and setting: with `COc1cc(/C=C/C(=O)CC(=O)/C=C/c2ccc(O)c(OC)c2)ccc1O` [CURCUMIN] the figure was 94.9%; with `O=C(NCCc1cccs1)c1cc(Oc2ccc(NC(=O)c3cn(-c4ccccc4)c4ccccc4c3=O)cc2F)ccn1`, 99.8%.
On the same count and under the same terms, to `O=C(NCCCN1CCOCC1)c1cc(Oc2ccc(NC(=O)c3cn(-c4ccc(Cl)cc4)c4ccccc4c3=O)cc2)ccn1` belongs greater than 100%; to `O=C(NCCc1cccs1)c1cc(Oc2ccc(NC(=O)c3cn(-c4ccccc4)c4ccccc4c3=O)cc2)ccn1`, 72%.
In the case of `O=C(NCCc1cccs1)c1cc(Oc2ccc(NC(=O)c3cn(-c4ccc(Cl)cc4)c4ccccc4c3=O)cc2)ccn1`, the viability at 48 h, 10 µM in data set [1] stood at 86.2%.
Still for that read-out and setting: to `COc1ccc(-n2cc(C(=O)Nc3ccc(Oc4ccnc(C(=O)NCCCN5CCOCC5)c4)cc3)c(=O)c3ccccc32)cc1` belongs 87%; to `O=C(NCCCN1CCOCC1)c1cc(Oc2ccc(NC(=O)c3cn(-c4ccc(Br)cc4F)c4ccccc4c3=O)cc2)ccn1`, 92.2%.
